Data published in patent US20250289785A1, “INDOLE DERIVATIVE, METHOD FOR PREPARING SAME, AND USE THEREOF” (MITOIMMUNE THERAPEUTICS INC., priority 2021, published 2025).

Legend:
H9C2 cells [1] = assay: Cell protection effect against t-BHP in heart cells (LDH release); format: cell-based; settings: H9C2, t-BHP 40 μM, 2 hours
Procedure: In order to identify the protective effect with regard to heart cells, H9C2 cells were divided into 96-well plates by 1.5×10^4, and cultured for 24 hours. The respective wells were treated with compounds of the examples 3× serial diluted to final concentrations of […], then cultured for 15 to 20 minutes. After treating with t-BHP with a final concentration of 40 μM, culturing was performed for 2 hours. In order to identify the protective effect of each compound, a Cytotoxicity LDH assay kit [Dojindo; CK12] was used to measure the degree of extracellular secretion of LDH. To describe briefly, at the time point 2-hour treatment of the cells with t-BHIP was completed, 100 μL each of the supernatant in which the cells were placed was collected and moved to a new 96-well plate. 100 μL/well of the assay buffer included in the kit (same amount as the sample) was added, followed by wrapping with foil and reacting for 30 minutes at room temperature. Observing the change in color of the sample, 50 μL/well of stop solution was added, then an iD3 spectrometer was used to measure absorbance at 490 nm and calculate the EC50 values. The EC50 of the compounds of the examples is preferably no more than 1.0 μM, and more preferably no more than 0.3 μM.

ARPE-19 cells = assay: Cell death protective effect in retinal epithelial cells against Erastin and RSL3 (LDH); format: cell-based, human; settings: 24 h
Procedure: In order to identify the protective effect on retinal epithelial cells, ARPE-19 cells were divided into 96-well plates by 1×10^4 and cultured for 18 to 24 hours. The compounds of Examples were diluted to final concentrations of 0.03 and 0.3 μM, treated in each well, and incubated for 20 minutes. Erastin, and RSL3 were treated to have final concentrations of 10 μM, and 0.3 μM, respectively, and cultured for 24 hours. In order to identify the protective effect of each compound, the degree of LDH extracellular secretion was measured using cytotoxicity LDH assay kit [Dojindo; CK12]. Briefly, at the time when the treatment of the cells with Erastin, and RSL3 for 24 hours is completed, the supernatants containing the cells are taken by 70 μL and transferred to a new 96-well plate. The assay buffer included in the kit is added in an amount of 70 μL/well (the same amount as the sample) thereto, and then the plate is wrapped with a foil and the reaction is performed at room temperature for 15 minutes.

H9C2 cells [2] = assay: Cell death protective effect in cardiac myocytes against Erastin, glutamate and RSL3 (LDH); format: cell-based, white mouse; settings: 24 h
Procedure: (§1) In order to identify the protective effect on cardiac cells, H9C2 cells were divided into 96-well plates by 1×10^4 and cultured for 18 to 24 hours. The compounds of Examples were diluted to final concentrations of 0.1 and 1.0 μM, treated in each well, and incubated for 15 to 20 minutes. Erastin, glutamate, and RSL3 were treated to have final concentrations of 1 μM, 25 mM, and 0.5 μM, respectively, and cultured for 24 hours. In order to identify the protective effect of each compound, the degree of LDH extracellular secretion was measured using cytotoxicity LDH assay kit [Dojindo; CK12]. Briefly, at the time when the treatment of the cells with Erastin, glutamate, and RSL3 for 24 hours is completed, the supernatants containing the cells are taken by 70 μL and transferred to a new 96-well plate. The assay buffer included in the kit is added in an amount of 70 μL/well (the same amount as the sample) thereto, and then the plate is wrapped with a foil and the reaction is performed at room temperature for 15 minutes.

NRK-49F cells = assay: Cell death protective effect in renal fibroblasts against Erastin, glutamate and RSL3 (LDH); format: cell-based, rat; settings: 24 h
Procedure: as §1, with “on renal fibroblasts, NRK-49F” for “on cardiac cells, H9C2”, “and 1.” for “and 1.0”, “of 3” for “of 1”, “μM, 75” for “μM, 25”, “and 3” for “and 0.5”

PC-12 cells = assay: Cell death protective effect in adrenal cells against Erastin, glutamate and RSL3 (LDH); format: cell-based, rat; settings: 24 h
Procedure: In order to identify the protective effect on adrenal cells, PC-12 cells were divided into 96-well plates by 1×10^4 and cultured for 18 to 24 hours. […] Erastin, glutamate, and RSL3 were treated to have final concentrations of 1 μM, 10 mM, and 0.3 μM, respectively, and cultured for 24 hours. In order to identify the protective effect of each compound, the degree of LDH extracellular secretion was measured using cytotoxicity LDH assay kit [Dojindo; CK12]. Briefly, at the time when the treatment of the cells with Erastin, glutamate, and RSL3 for 24 hours is completed, the supernatants containing the cells are taken by 70 μL and transferred to a new 96-well plate. The assay buffer included in the kit is added in an amount of 70 μL/well (the same amount as the sample) thereto, and then the plate is wrapped with a foil and the reaction is performed at room temperature for 15 minutes.

[3] = ARPE-19, Erastin, 10 μM, compound 0.03 μM
[4] = ARPE-19, Erastin, 10 μM, compound 0.3 μM
[5] = ARPE-19, RSL3, 0.3 μM, compound 0.03 μM (first RSL3 column)
[6] = ARPE-19, RSL3, 0.3 μM, compound 0.03 μM (second RSL3 column)
[7] = H9C2, Erastin, 1 μM, compound 0.1 μM
[8] = H9C2, Erastin, 1 μM, compound 1.0 μM
[9] = H9C2, Glutamate, 25 mM, compound 0.1 μM
[10] = H9C2, Glutamate, 25 mM, compound 1.0 μM
[11] = H9C2, RSL3, 0.5 μM, compound 0.1 μM
[12] = H9C2, RSL3, 0.5 μM, compound 1.0 μM
[13] = Glutamate, 75 mM, compound 0.1 μM
[14] = Glutamate, 75 mM, compound 1.0 μM
[15] = PC-12, Erastin, 1 μM, compound 0.1 μM
[16] = PC-12, Erastin, 1 μM, compound 1.0 μM
[17] = PC-12, Glutamate, 10 mM, compound 0.1 μM
[18] = PC-12, Glutamate, 10 mM, compound 1.0 μM
[19] = PC-12, RSL3, 0.3 μM, compound 0.1 μM
[20] = PC-12, RSL3, 0.3 μM, compound 1.0 μM

Compound | inhibition (%) (ARPE-19 cells; [3]) | inhibition (%) (ARPE-19 cells; [4]) | inhibition (%) (ARPE-19 cells; [5]) | inhibition (%) (ARPE-19 cells; [6]) | inhibition (%) (H9C2 cells [2]; [7]) | inhibition (%) (H9C2 cells [2]; [8]) | inhibition (%) (H9C2 cells [2]; [9]) | inhibition (%) (H9C2 cells [2]; [10]) | inhibition (%) (H9C2 cells [2]; [11]) | inhibition (%) (H9C2 cells [2]; [12]) | inhibition (%) (NRK-49F cells; Erastin, 3 μM, compound 0.1 μM) | inhibition (%) (NRK-49F cells; Erastin, 3 μM, compound 1.0 μM) | inhibition (%) (NRK-49F cells; [13]) | inhibition (%) (NRK-49F cells; [14]) | inhibition (%) (NRK-49F cells; RSL3, 3 μM, compound 0.1 μM) | inhibition (%) (NRK-49F cells; RSL3, 3 μM, compound 1.0 μM) | inhibition (%) (PC-12 cells; [15]) | inhibition (%) (PC-12 cells; [16]) | inhibition (%) (PC-12 cells; [17]) | inhibition (%) (PC-12 cells; [18]) | other results
COCc1cc(NC2CCOCC2)c2[nH]c(-c3ccccc3)cc2c1 [Example 1, 5-(methoxymethyl)-2-phenyl-N-tetrahydropyran-4-yl-1H-indol-7-amine] | 100 | 100 | 100 | 100 | 100 | 100 | 97 | 98 | 100 | 100 | 96 | 95 | 100 | 100 | 98 | 98 | 100 | 100 | 77 | 100 | EC50 (H9C2 cells [1]): ≤ 300 nM; inhibition (%) (PC-12 cells; [19]): 100%; inhibition (%) (PC-12 cells; [20]): 100%
COCc1cc(NC2CCCC2)c2[nH]c(-c3ccccc3)cc2c1 [Example 2, N-cyclopentyl-5-(methoxymethyl)-2-phenyl-1H-indol-7-amine] | 100 | 100 | 100 | 100 | 100 | 100 | 97 | 98 | 100 | 100 | 97 | 94 | 100 | 100 | 98 | 97 | 100 | 100 | 96 | 100 | EC50 (H9C2 cells [1]): ≤ 300 nM; inhibition (%) (PC-12 cells; [19]): 100%; inhibition (%) (PC-12 cells; [20]): 100%
COCc1cc(NC2CC[S+]([O-])CC2)c2[nH]c(-c3ccccc3)cc2c1 (centres unmarked) [Example 14, 5-(methoxymethyl)-N-(1-oxothian-4-yl)-2-phenyl-1H-indol-7-amine] | 100 | 98 | 82 | 98 | 100 | 100 | 97 | 99 | 100 | 100 | 96 | 93 | 100 | 100 | 97 | 97 | 100 | 100 | 45 | 100 | EC50 (H9C2 cells [1]): ≤ 300 nM; inhibition (%) (PC-12 cells; [19]): 100%; inhibition (%) (PC-12 cells; [20]): 100%
CCOCc1cc(NC2CCCC2)c2[nH]c(-c3ccccc3)cc2c1 [Example 19, N-cyclopentyl-5-(ethoxymethyl)-2-phenyl-1H-indol-7-amine] | 99 | 100 | 100 | 100 | 100 | 100 | 99 | 100 | 100 | 100 | 96 | 95 | 100 | 100 | 97 | 96 | 100 | 100 | 100 | 100 | EC50 (H9C2 cells [1]): ≤ 300 nM; inhibition (%) (PC-12 cells; [19]): 100%; inhibition (%) (PC-12 cells; [20]): 100%
CCOCc1cc(NC2CCOCC2)c2c(c1)c(COC)c(-c1ccccc1)n2C [Example 29, 5-(ethoxymethyl)-3-(methoxymethyl)-1-methyl-2-phenyl-N-(tetrahydro-2H-pyran-4-yl)-1H-indol-7-amine] | 22 | 100 | 18 | 100 | 1 | 100 | 6 | 95 | 10 | 100 | 3 | 93 | 17 | 100 | 0 | 96 | 0 | 100 | 22 | 71 | EC50 (H9C2 cells [1]): 300 to 1000 nM; inhibition (%) (PC-12 cells; [19]): 26%; inhibition (%) (PC-12 cells; [20]): 100%
CCOC(=O)c1ccc(NC2CCCCC2)c(N)c1 [Ferrostatin-1, reference compound] | 96 | 100 | 68 | 100 | 100 | 100 | 95 | 97 | 83 | 100 | 98 | 97 | 90 | 100 | 97 | 97 | 100 | 100 | 29 | 99 | inhibition (%) (PC-12 cells; [19]): 100%; inhibition (%) (PC-12 cells; [20]): 100%
